The results in this text go back to US20080312301A1, “Substituted N-Benzo[D]Isoxazol-3-Yl-Amine Compounds as Inhibitors of Mglur5, Serotonin (5-Ht) and Noradrenaline Receptors, and Uses Thereof” (Gruenenthal GmbH, priority 2005, published 2008).

The term inhibition denotes the change of the read-out against control, counted positive when it falls. High values mean strong suppression, low ones little suppression.

The assay concerns the target T1, NA transporter (Rattus norvegicus, UniProt Q63380).
T1 construct: from tissue; host or cells: rat hypothalamus synaptosomes (P2 fraction)
Kind of assay: Noradrenaline (NA) uptake inhibition in rat brain synaptosomes (hypothalamus), [3H]-NA. It is filed as biochemical. Particulars: for inhibition at 10 µM: conc. 10 μM. An excerpt:
I. Method for Determining the Noradrenaline and 5HT Uptake Inhibition:
For in vitro studies, synaptosomes were freshly isolated from rat brain areas as described in the publication “The isolation of nerve endings from brain” by E. G. Gray and V. P. Whittaker, J. Anatomy 96, pages 79-88, 1962. The corresponding literature description is introduced hereby as reference and forms part of the disclosure.
The tissue (hypothalamus for determining the noradrenaline uptake inhibition and medulla and pons for determining the 5HT uptake inhibition) was homogenized in ice-cold 0.32 M sucrose (100 mg of tissue/1 ml) in a glass homogenizer with Teflon pestle using five full up and down strokes at 840 revolutions/minute. The homogenate was centrifuged at 1000 g and at 4° C. for 10 minutes. After subsequent centrifugation at 17 000 g for 55 minutes, the synaptosomes (P2 fraction) are obtained and were resuspended in 0.32 M […] (0.5 ml/100 mg of the original weight).
The respective uptake was measured in a 96-well microtiter plate. The volume was 250 μl and incubation took place at room temperature (approx. 20-25° C.) under an O2 atmosphere.
The incubation time was 7.5 minutes for [^3H]-NA and 5 minutes for [^3H]-5-HT. The 96 samples were then filtered through a Unifilter GF/B® microtiter plate (Packard) and washed with […] of incubated buffer using a “Brabdel MPXRI-96T Cell Harvester”. The Unifilter GF/B plate was dried at 55° C. for 1 h. The plate was then sealed with a Back Seal® (Packard) and 35 μl of scintillation fluid were added per well (Ultima Gold®, Packard). After sealing with a top Seal® (Packard), the radioactivity was determined, after equilibrium had been reached (about 5 h), in a “Trilux 1450 Microbeta” (Wallac).
The following characteristic data were found for the NA transporter:
The amount of protein employed in the above determination corresponded to the value disclosed in the literature, as described for example in “Protein measurement with the folin phenol reagent”, Lowry et al., J. Biol. Chem., 193, 265-275, 1951. A detailed description of the method can also be found in the literature, for example from M. Ch. Frink, H.-H. Hennies, W. Engelberger, M. Haurand and B. Wilffert (1996) Arzneim.-Forsch./Drug Res. 46 (III), 11, 1029-1036. The corresponding literature descriptions are hereby introduced as reference and form part of the disclosure.

T1 sequence (Q63380 1-617): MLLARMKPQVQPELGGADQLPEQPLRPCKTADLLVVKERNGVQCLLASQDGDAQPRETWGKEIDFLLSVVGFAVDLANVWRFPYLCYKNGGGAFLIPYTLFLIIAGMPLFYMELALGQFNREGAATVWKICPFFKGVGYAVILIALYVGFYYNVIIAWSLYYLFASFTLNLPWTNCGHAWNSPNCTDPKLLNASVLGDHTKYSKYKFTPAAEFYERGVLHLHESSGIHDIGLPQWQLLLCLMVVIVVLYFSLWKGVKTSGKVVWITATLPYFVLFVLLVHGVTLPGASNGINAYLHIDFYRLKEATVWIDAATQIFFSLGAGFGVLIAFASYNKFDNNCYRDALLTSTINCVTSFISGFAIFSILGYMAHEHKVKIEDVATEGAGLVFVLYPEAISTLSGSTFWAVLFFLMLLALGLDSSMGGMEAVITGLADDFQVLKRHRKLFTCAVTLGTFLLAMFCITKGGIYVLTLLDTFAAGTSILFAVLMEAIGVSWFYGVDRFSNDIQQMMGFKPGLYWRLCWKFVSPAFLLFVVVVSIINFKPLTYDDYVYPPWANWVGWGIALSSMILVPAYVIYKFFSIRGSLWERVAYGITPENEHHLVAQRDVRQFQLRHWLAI

Regarding `Nc1cccc2onc(NC(=O)c3cccc4ccccc34)c12` [Example 11, naphthalene-1-(4-aminobenzo[d]isoxazol-3-yl)carboxamide], the “NA uptake inhibition [%] conc. 10 μM” value was 71%.

Turning to `O=C(Nc1noc2c(F)cccc12)C(c1ccccc1)c1ccccc1` [Example 62, N-(7-fluorobenzo[d]isoxazol-3-yl)-2,2-diphenylacetamide], the inhibition at 10 µM is 63%.

Consider `O=C(Nc1noc2cc(Br)ccc12)c1ccc(F)cc1C(F)(F)F` [Example 43, N-(6-bromobenzo[d]isoxazol-3-yl)-4-fluoro-2-trifluoromethylbenzamide], for which the inhibition at 10 µM was 66%.

`CN(C)c1cccc2onc(NC(=O)C(F)(F)C(F)(F)C(F)(F)F)c12` [Example 76, N-(4-dimethylaminobenzo[d]isoxazol-3-yl)-2,2,3,3,4,4,4-heptafluorobutyramide] displayed an inhibition at 10 µM of 67%.

`O=C(Nc1noc2c(F)cccc12)c1ccc(C(F)(F)F)c(F)c1` [Example 53, 3-fluoro-N-(7-fluorobenzo[d]isoxazol-3-yl)-4-trifluoromethylbenzamide] came in with an inhibition at 10 µM of 69%.

In turn, `Nc1cccc2onc(NC(=O)c3ccc([N+](=O)[O-])cc3)c12` [Example 10, N-(4-aminobenzo[d]isoxazol-3-yl)-4-nitrobenzamide] showed an inhibition at 10 µM of 66%.

`CN(C)c1cccc2onc(NC(=O)c3cccc(C(F)(F)F)c3F)c12` [Example 70, N-(4-dimethylaminobenzo[d]isoxazol-3-yl)-2-fluoro-3-trifluoromethylbenzamide]: 10 µM produced 66% inhibition.

On to “furan-2-(4-dimethylaminobenzo[d]isoxazol-3-yl)carboxamide [Example 75]”, for which the “NA uptake inhibition [%] conc. 10 μM” value amounted to 64%.

For the molecule `O=C(Nc1noc2cc(Br)ccc12)c1ccc(F)c(F)c1F` [Example 47, N-(6-bromobenzo[d]isoxazol-3-yl)-2,3,4-trifluorobenzamide], testing at 10 µM gave an inhibition of 66%.

The molecule `COc1cccc(C(=O)Nc2noc3cccc(N(C)C)c23)c1` [Example 71, N-(4-dimethylaminobenzo[d]isoxazol-3-yl)-3-methoxybenzamide] showed an inhibition at 10 µM of 65%.

`O=C(Nc1noc2cc(Br)ccc12)c1cc(F)cc(C(F)(F)F)c1` [Example 46, N-(6-bromobenzo[d]isoxazol-3-yl)-3-fluoro-5-trifluoromethylbenzamide] had an inhibition at 10 µM of 65%.

For `COc1cccc(C(=O)Nc2noc3c(F)cccc23)c1` [Example 61, N-(7-fluorobenzo[d]isoxazol-3-yl)-3-methoxybenzamide], the inhibition at 10 µM amounted to 66%.

Regarding `COc1cccc2onc(NC(=O)C(c3ccccc3)c3ccccc3)c12` [Example 7, N-(4-methoxybenzo[d]isoxazol-3-yl)-2,2-diphenylacetamide], the inhibition at 10 µM was found to be 63%.

In turn, `O=C(Nc1noc2cccc(OCC(F)(F)F)c12)c1ccc(C(F)(F)F)c(F)c1` [Example 79, 3-fluoro-N-[4-(2,2,2-trifluoroethoxy)benzo[d]isoxazol-3-yl]-4-trifluoromethyl-benzamide] displayed an inhibition at 10 µM of 62%.

`O=C(Nc1noc2cc(Cl)ccc12)c1ccc(I)cc1` [Example 40, N-(6-chlorobenzo[d]isoxazol-3-yl)-4-iodobenzamide] displayed an inhibition at 10 µM of 61%.

As for `O=C(Nc1noc2ccc(Br)cc12)c1ccco1` [Example 50, furan-2-(5-bromobenzo[d]isoxazol-3-yl)carboxamide], the “NA uptake inhibition [%] conc. 10 μM” value came out at 66%.

As to `O=C(Nc1noc2cc(Br)ccc12)c1ccc(C(F)(F)F)c(F)c1` [Example 45, N-(6-bromobenzo[d]isoxazol-3-yl)-3-fluoro-4-trifluoromethylbenzamide], the inhibition at 10 µM was 64%.

The molecule `O=C(Nc1noc2c(F)cccc12)c1cc(F)c(Cl)cc1Cl` [Example 52, 2,4-dichloro-5-fluoro-N-(7-fluorobenzo[d]isoxazol-3-yl)benzamide] had an inhibition at 10 µM of 70%.

As for `O=C(Nc1noc2cc(Cl)ccc12)c1ccc(F)c(F)c1` [Example 42, N-(6-chlorobenzo[d]isoxazol-3-yl)-3,4-difluorobenzamide], testing at 10 µM gave an inhibition of 64%.

Turning to `O=C(Nc1noc2cccc(OCC(F)(F)F)c12)c1ccc2ccccc2c1` [Example 81, naphthalene-2-[4-(2,2,2-trifluoroethoxy)benzo[d]isoxazol-3-yl]carboxamide], the “NA uptake inhibition [%] conc. 10 μM” value is 65%.

Consider `CN(C)c1cccc2onc(NC(=O)c3cccnc3Cl)c12` [Example 66, 2-chloro-N-(4-dimethylaminobenzo[d]isoxazol-3-yl)nicotinamide], for which the inhibition at 10 µM was found to be 64%.

Take `O=C(Nc1noc2c(F)cccc12)c1ccco1` [Example 63, furan-2-(7-fluorobenzo[d]isoxazol-3-yl)carboxamide]: the “NA uptake inhibition [%] conc. 10 μM” value is reported as 64%.

The molecule `O=C(Nc1noc2cccc(OCC(F)(F)F)c12)c1ccc(F)c(F)c1F` [Example 80, 2,3,4-trifluoro-N-[4-(2,2,2-trifluoroethoxy)benzo[d]isoxazol-3-yl]benzamide] returned an inhibition at 10 µM of 66%.

`O=C(Nc1noc2cccc(OCC(F)(F)F)c12)c1cc(F)c(Cl)cc1Cl` [Example 78, 2,4-dichloro-5-fluoro-N-[4-(2,2,2-trifluoroethoxy)benzo[d]isoxazol-3-yl]benzamide] gave an inhibition at 10 µM of 66%.

For the molecule `O=C(Nc1noc2cccc(F)c12)c1cc2ccccc2s1` [Example 12, benzo[b]thiophene-2-(4-fluorobenzo[d]isoxazol-3-yl)carboxamide], the “NA uptake inhibition [%] conc. 10 μM” value is recorded as 60%.

`O=C(Nc1noc2c(F)cccc12)c1ccc(I)cc1` [Example 55, N-(7-fluorobenzo[d]isoxazol-3-yl)-4-iodobenzamide] yielded an inhibition at 10 µM of 69%.

Regarding `O=C(Nc1noc2c(F)cccc12)c1cccnc1Cl` [Example 56, 2-chloro-N-(7-fluorobenzo[d]isoxazol-3-yl)nicotinamide], testing at 10 µM gave an inhibition of 72%.

On to `O=C(Nc1noc2c(F)cccc12)c1cccc(C(F)(F)F)c1F` [Example 60, 2-fluoro-N-(7-fluorobenzo[d]isoxazol-3-yl)-3-trifluoromethylbenzamide], for which 10 µM produced 66% inhibition.

For the molecule `CN(C)c1cccc2onc(NC(=O)c3ccc4ccccc4c3)c12` [Example 67, naphthalene-2-(4-dimethylaminobenzo[d]isoxazol-3-yl)carboxamide], the “NA uptake inhibition [%] conc. 10 μM” value amounted to 73%.

Molecule `O=C(Nc1noc2cc(Br)ccc12)c1cc(F)c(Cl)cc1Cl` [Example 44, 2,4-dichloro-N-(6-bromobenzo[d]isoxazol-3-yl)-5-fluorobenzamide] yielded an inhibition at 10 µM of 61%.

Take `CN(C)c1cccc2onc(NC(=O)C(c3ccccc3)c3ccccc3)c12` [Example 74, N-(4-dimethylaminobenzo[d]isoxazol-3-yl)-2,2-diphenylacetamide]: the inhibition at 10 µM stood at 70%.

Turning to `CN(C)c1cccc2onc(NC(=O)C(C)(C)C)c12` [Example 72, N-(4-dimethylaminobenzo[d]isoxazol-3-yl)-2,2-dimethylpropionamide], the inhibition at 10 µM was determined as 66%.

`O=C(Nc1noc2c(F)cccc12)c1ccc(F)c(F)c1` [Example 59, 3,4-difluoro-N-(7-fluorobenzo[d]isoxazol-3-yl)benzamide] registered an inhibition at 10 µM of 67%.

Turning to `O=C(Nc1noc2c(F)ccc(F)c12)c1ccccc1C(F)(F)F` [Example 51, 7-fluoro-N-(4-fluorobenzo[d]isoxazol-3-yl)-2-trifluoromethylbenzamide], 10 µM produced 71% inhibition.

`CN(C)c1cccc2onc(NC(=O)c3ccc(F)c(F)c3F)c12` [Example 65, N-(4-dimethylaminobenzo[d]isoxazol-3-yl)-2,3,4-trifluorobenzamide]: 10 µM produced 68% inhibition.

Consider `O=C(Nc1noc2ccc(Br)cc12)C1CC1` [Example 8, cyclopropane(5-bromobenzo[d]isoxazol-3-yl)carboxamide], for which the “NA uptake inhibition [%] conc. 10 μM” value is recorded as 62%.

In the case of `CCCc1ccc(C(=O)Nc2noc3cccc(F)c23)cc1` [Example 58, N-(74-fluorobenzo[d]isoxazol-3-yl)-4-propylbenzamide], the “NA uptake inhibition [%] conc. 10 μM” value is 64%.

`CCCc1ccc(C(=O)Nc2noc3cc(Br)ccc23)cc1` [Example 48, N-(6-bromobenzo[d]isoxazol-3-yl)-4-propylbenzamide] returned an inhibition at 10 µM of 61%.

`O=C(Nc1noc2cccc(OCC(F)(F)F)c12)c1cccc(C(F)(F)F)c1F` [Example 83, 2-fluoro-N-[4-(2,2,2-trifluoroethoxy)benzo[d]isoxazol-3-yl]-3-trifluoromethyl-benzamide]: the inhibition at 10 µM stood at 65%.
